Measurements published in US20100166851A1, “Composition having lipolytic activity, production method thereof and use of the composition” (NUTRACEUTIC ET BUSINESS CONSULTING, priority 2007, published 2010).

Tested on: human adipocytes
Assay: release of Not Esterified Fatty Acids (NEFA) by human adipocytes in suspension (ex-vivo lipolysis)
Assay type: cell-based
Conditions: for NEFA: human adipocytes, 2 hours at 37° C., n=3; for % of the control: NEFA released, 2 hours
Method: This experiment has been conducted on human adipocytes isolated from an abdominal plasty of a donor. […] To 540 uL of a suspension of adipocytes in a test medium milieu have been added 60 μL of compound to be tested, and the mixtures have been incubated at 37° C., under stirring, for 2 hours. A final concentration of theophylline in the tested mixture of 1 mM was maintained, starting from a stock solution of 10^−2 M in test medium. Likewise, a final concentration of isoproterenol in the tested mixture of 1 μM was maintained, starting from a stock solution of […] in test medium. A final concentration of caffeine in the tested mixture of 0.5 mM was also maintained, starting from a stock solution of 5 mM in test medium. […] Since the composition according to the invention is a powder, it was diluted in DMSO, on the one hand, and in test medium, on the other hand. The stock solution prepared with DMSO was prepared at 10 mg/mL, i.e. 1% (w/v), for a final concentration of the composition according to the invention in solution in DMSO in the tested mixture of 0.01%. […] A control comprising only the adipocytes in test medium was also prepared. A total of 10 doses were prepared from 10 different fractions with the compound added or not. […] The dose was prepared conventionally by means of a NEFA-C measuring kit. The measured data were processed statistically. Intergroup comparisons were carried out through variance analysis (ANOVA) by means of the Dunnet multiple comparison test.

## Cn1c(=O)c2c(ncn2C)n(C)c1=O [Caffeine, caffeine]
0.5 mM
  NEFA: 339 µM
  % of the control: 941%
0.5 mM, p<0.01
  release of NEFA, factor with respect to the control: about 9.5

## CC(C)NCC(O)c1ccc(O)c(O)c1 (stereo not drawn) [Isoproterenol, isoproterenol]
1.0 μM
  NEFA: 377 µM
  % of the control: 1048%
1 μM, p<0.01
  lipolysis stimulation, factor with respect to the control: 10

## Cn1c(=O)c2[nH]cnc2n(C)c1=O [Theophylline, theophylline]
1.0 mM
  NEFA: 381 µM
  % of the control: 1057%
1 mM, p<0.01
  lipolysis stimulation, factor with respect to the control: 10
